The text below walks through data of patent publication US20230276792A1, “SELECTIVE HERBICIDES BASED ON SUBSTITUTED ISOXAZOLIN CARBOXAMIDES AND CLOQUINTOCET-MEXYL” (Bayer Aktiengesellschaft, priority 2020, published 2023).

Common to all, as to format: in vivo
Assay [1] deals with spring wheat, TRZAS Triso. Put plainly: Safener seed treatment, post-emergence herbicide application, crop damage. As to conditions: for HER effect + SAF [%] / Reduction [%]: cloquintocet-mexyl 0, 5 g a.i./kg seed; for HER effect [%]: without safener. The text has this:
(§1) For safener seed treatment trials, sufficient seed amounts of the respective crops (spring wheat (TRZAS); spring barley (HORVS)) were weighed into screw cap glass bottles with a minimum volume trice of the seeds.
(§2) As a first step, specified safeners formulated as wettable powder (WP) or wettable granules (WG) were weighed out for the required dosages (g a.i./kg seed), corresponding to the seed amounts. The safener amounts were mixed with a coloured slurry blind formulation type, pre-diluted with milk at 3.5% fat rate (25 mgs slurry formulation plus 2 ml milk per 10 grams of seed). A tube roller was used for coating. The solutions were gradually pipetted each on the rotating seeds followed by coating for min. 3 hours until all liquid had been soaked up by the seeds. Thereafter, the coated seeds were put flat on open trays for drying over night at room temperature.
(§3) Treated seeds were then placed into pots (7 cm diameter) on the surface of sandy loam, pressed down, flat covered with additional soil and finally covered with sandy soil, also pressed down, watered, and kept under good growth conditions in a greenhouse, until the plants had reached 2-leaf-stage (BBCH 12).
(§4) At that stage, post-emergence application of the specified herbicides was done on: • a) pot sets containing plants with safener-coated seeds as described above, • b) as a reference, pot sets of plants without seed treatment.
(§5) The herbicides were formulated as wettable powder (WP). Equivalent to the spray area, compound amounts were weighed out and diluted related to the water application rate (300 l/ha) to an aqueous suspension plus additive (1 l/ha MERO). Dosage related equivalents were conventionally sprayed on trays with the potted plants.
(§6) After application, the test plants were kept under good growth conditions in a greenhouse. Assessment timings were 10 and 21 days after treatment (DAT) with the herbicide, by visual scoring of the crop damage in % (comparison of untreated with treated plants, either sprayed only with herbicide or with herbicide on plants with treated seeds).
(§7) Reduction [Difference]=herbicide damage without safener−herbicide damage with safener
(§8) Reduction [%]=(Reduction [Difference]*100)/herbicide damage without safener
b) Plant Species, Variety: TRZAS Triso, Safener (SAF): Cloquintocet-Mexyl

Assay [2] relates to spring barley, HORVS Montoya. Described as above. Details: key to Reduction [Difference]: % crop damage without safener minus % damage with safener. As to conditions: cloquintocet-mexyl 0, 5 g a.i./kg seed.
From the text: as §1, §2, §3, §4, §5, §6, §7, §8
(§9) a) Plant Species, Variety: HORVS Montoya, Safener (SAF): Cloquintocet-Mexyl

For assay [3], the system named is spring barley, HORVS Montoya. Description: Tank-mix post-emergence crop damage, herbicide with and without safener cloquintocet-mexyl, greenhouse. Details: key to Reduction [Difference]: damage without safener − damage with safener, % points (0–100% scale). As for the experimental part:
Seeds of crops (spring wheat, TRZAS; spring barley, HORVS; maize, ZEAMA) were placed in sandy loam soil in peat pots, covered with soil and cultivated in a greenhouse under good growth conditions. Two to three weeks after sowing, the test plants were treated at the 1 to 3-leaf stage. The herbicide/safener active compound combinations according to the invention, formulated as wettable powders or emulsion concentrates, and, in parallel tests, the correspondingly formulated individual active compounds were sprayed onto the green parts of the plants in various dosages using an amount of water of 300 l/ha (converted).
The pots were returned under good growing conditions in a glasshouse and a visual assessment of herbicidal effects was made at intervals from 1 to 3 weeks after herbicide application (DAT=days after treatment). Assessment was on a percentage basis in comparison with untreated control plants (0%=no injury, 100%=complete kill).
as §7, §8, §9

Setting [4] is: 10 DAT, HER dose 8 g a.i./ha, cloquintocet-mexyl 50 g a.i./ha.
[5] abbreviates: 10 DAT, HER dose 32 g a.i./ha, cloquintocet-mexyl 100 g a.i./ha.
The mark [6] stands for this setting: 10 DAT, HER dose 48 g a.i./ha, cloquintocet-mexyl 100 g a.i./ha.
The mark [7] stands for this setting: 21 DAT, HER dose 1, 5 g a.i./ha.
[8] abbreviates: 10 DAT, HER dose 1, 5 g a.i./ha.

On to `C=CC1(C(=O)NC2COC(C(=O)OCCOC)C2)CC(c2cc(C)cc(F)c2)=NO1` (mixture of isomers) [Example 1.65], for which, in assay [1] (10 DAT, HER dose 8 g a.i./ha), the “HER effect + SAF [%]” value turned out to be 0% and the “HER effect [%]” value amounted to 20%. Besides, the “Reduction [Difference]” value in assay [2] (10 DAT, HER dose 8 g a.i./ha) turned out to be 80. Moreover, in assay [2] (10 DAT, HER dose 32 g a.i./ha), the “HER effect + SAF” value is recorded as 10%, the “Reduction [%]” value was 88% and the “Reduction [Difference]” value is 70.

Take `CC1(C(=O)NC2CC=C(C(=O)NS(C)(=O)=O)C2)CC(c2cc(F)cc(F)c2)=NO1` (mixture of isomers) [Example 1.61]: in assay [1] (10 DAT, HER dose 8 g a.i./ha), the “HER effect + SAF [%]” value came out at 0%, the “Reduction [%]” value stood at 100% and the “HER effect [%]” value turned out to be 50%. Besides, in assay [1] (10 DAT, HER dose 32 g a.i./ha), the “HER effect + SAF [%]” value was determined as 0%, the “Reduction [%]” value amounted to 100% and the “HER effect [%]” value is 50%.

Regarding `COC(=O)C1COCC1NC(=O)C1(C)CC(c2cc(F)cc(F)c2)=NO1` (mixture of isomers) [Example 1.93], the “HER effect + SAF [%]” value in assay [1] (21 DAT, HER dose 2 g a.i./ha) worked out at 0%; in assay [1] (21 DAT, HER dose 8 g a.i./ha), 10%; in assay [1] (21 DAT, HER dose 32 g a.i./ha) it was 10%. For the same molecule, the “HER effect [%]” value in assay [1] (21 DAT, HER dose 2 g a.i./ha) was determined as 85%; in assay [1] (21 DAT, HER dose 8 g a.i./ha) it was 93%; in assay [1] (21 DAT, HER dose 32 g a.i./ha), 95%. For the same molecule, the “HER effect + SAF” value in assay [2] (10 DAT, HER dose 32 g a.i./ha) worked out at 20%; in assay [3] (setting [4]), 60%; in assay [3] (setting [5]), 60%. Further, the “Reduction [%]” value in assay [2] (10 DAT, HER dose 32 g a.i./ha) turned out to be 78%; in assay [3] (setting [4]) it was 29%; in assay [3] (setting [5]) it was 33%. Further, the “Reduction [Difference]” value in assay [2] (10 DAT, HER dose 32 g a.i./ha) was determined as 70; in assay [3] (setting [4]), 25; in assay [3] (setting [5]), 30.

For `COC(=O)C1CC(NC(=O)C2(OC)CC(c3cc(F)cc(F)c3)=NO2)CO1` (mixture of isomers) [Example 1.72], in assay [1] (21 DAT, HER dose 32 g a.i./ha), the “HER effect + SAF [%]” value stood at 10% and the “HER effect [%]” value is 60%. Moreover, the “Reduction [%]” value in assay [3] (setting [4]) turned out to be 67%. In assay [3] (setting [5]), the “HER effect + SAF” value is 20% and the “Reduction [%]” value is recorded as 60%.

In the case of `CC(C)OC(=O)C1CC(NC(=O)C2(C(C)(F)F)CC(c3cc(F)cc(F)c3)=NO2)CO1` (mixture of isomers) [Example 1.88], in assay [1] (21 DAT, HER dose 2 g a.i./ha), the “HER effect + SAF [%]” value turned out to be 20%, the “Reduction [%]” value stood at 71% and the “HER effect [%]” value is reported as 70%. Further, in assay [1] (21 DAT, HER dose 8 g a.i./ha), the “HER effect + SAF [%]” value was determined as 20% and the “HER effect [%]” value is 85%. Moreover, in assay [2] (21 DAT, HER dose 2 g a.i./ha), the “Reduction [%]” value is 40%. For the same molecule, in assay [2] (21 DAT, HER dose 8 g a.i./ha), the “HER effect + SAF” value is listed as 40%, the “Reduction [%]” value stood at 53% and the “Reduction [Difference]” value was 45. Besides, in assay [3] (21 DAT, HER dose 1, 5 g a.i./ha, cloquintocet-mexyl 50 g a.i./ha), the “Reduction [%]” value was 50%.

`CCOC(=O)C1C=CC(NC(=O)C2(C(F)(F)F)CC(c3cc(OC)cc(OC)c3)=NO2)C1` (mixture of isomers) [Example 1.12]: in assay [3] (setting [6]), the “HER effect + SAF” value worked out at 10%, the “Reduction [%]” value was determined as 83% and the “Reduction [Difference]” value is on record as 50.

Turning to `CSCCOC(=O)C1C=CC(NC(=O)C2(C(F)(F)F)CC(c3cc(F)cc(F)c3)=NO2)C1` (centres unmarked) [Example 1.7], in assay [1] (10 DAT, HER dose 2 g a.i./ha), the “HER effect + SAF [%]” value worked out at 0% and the “HER effect [%]” value amounted to 50%. Further, in assay [1] (10 DAT, HER dose 8 g a.i./ha), the “HER effect + SAF [%]” value came to 30%, the “Reduction [%]” value came to 68% and the “HER effect [%]” value amounted to 93%. For the same molecule, in assay [1] (10 DAT, HER dose 32 g a.i./ha), the “HER effect + SAF [%]” value is reported as 50%, the “Reduction [%]” value is 46% and the “HER effect [%]” value is on record as 93%. In assay [2] (21 DAT, HER dose 2 g a.i./ha), the “HER effect + SAF” value was 30% and the “Reduction [Difference]” value is 40. In assay [2] (21 DAT, HER dose 32 g a.i./ha), the “HER effect + SAF” value is 60%, the “Reduction [%]” value worked out at 37% and the “Reduction [Difference]” value is listed as 35.

Turning to `COC(=O)C1(C)CC(NC(=O)C2(C(C)(F)F)CC(c3cc(F)cc(F)c3)=NO2)CO1` (mixture of isomers) [Example 1.94], the “HER effect + SAF [%]” value in assay [1] (setting [7]) was determined as 0%; in assay [1] (21 DAT, HER dose 6 g a.i./ha), 10%; in assay [1] (21 DAT, HER dose 24 g a.i./ha), 20%. For the same molecule, the “HER effect [%]” value in assay [1] (setting [7]) came to 20%; in assay [1] (21 DAT, HER dose 6 g a.i./ha), 85%; in assay [1] (21 DAT, HER dose 24 g a.i./ha), 85%. Moreover, the “Reduction [Difference]” value in assay [2] (10 DAT, HER dose 8 g a.i./ha) came to 90; in assay [2] (10 DAT, HER dose 32 g a.i./ha), 80; in assay [3] (setting [4]) it was 90. Besides, the “Reduction [%]” value in assay [2] (10 DAT, HER dose 32 g a.i./ha) is given as 89%.

As for `C=CCOC(=O)C1CC(NC(=O)C2(C=C)CC(c3cc(C)cc(F)c3)=NO2)CO1` (mixture of isomers) [Example 1.85], in assay [2] (10 DAT, HER dose 32 g a.i./ha), the “HER effect + SAF” value came to 10%, the “Reduction [%]” value turned out to be 88% and the “Reduction [Difference]” value came to 70.

Turning to `CCOC(=O)C1CC(NC(=O)C2(C)CC(c3cccc(F)c3)=NO2)CO1` (mixture of isomers) [Example 1.67], the “HER effect + SAF [%]” value was found to be 10% in assay [1] (10 DAT, HER dose 4 g a.i./ha) and 20% in assay [1] (10 DAT, HER dose 16 g a.i./ha). Moreover, the “HER effect [%]” value in assay [1] (10 DAT, HER dose 4 g a.i./ha) is 50%; in assay [1] (10 DAT, HER dose 16 g a.i./ha), 70%. Further, the “Reduction [%]” value in assay [2] (10 DAT, HER dose 4 g a.i./ha) is 67%; in assay [2] (10 DAT, HER dose 16 g a.i./ha), 67%; in assay [3] (10 DAT, HER dose 16 g a.i./ha, cloquintocet-mexyl 100 g a.i./ha), 83%. In addition, the “Reduction [Difference]” value in assay [2] (10 DAT, HER dose 4 g a.i./ha) was determined as 20.

As to `COC(=O)C1C=CC(NC(=O)C2(C(F)(F)F)CC(c3cccc(F)c3)=NO2)C1` (centres unmarked) [Example 1.18], the “Reduction [Difference]” value in assay [2] (10 DAT, HER dose 32 g a.i./ha) stood at 80.

For the molecule `CC(C)OC(=O)C1CC(NC(=O)C2(C)CC(c3cccc(F)c3)=NO2)CO1` (mixture of isomers) [Example 1.78], the “HER effect + SAF [%]” value in assay [1] (setting [8]) turned out to be 0%; in assay [1] (10 DAT, HER dose 6 g a.i./ha), 0%; in assay [1] (10 DAT, HER dose 24 g a.i./ha), 10%. Further, the “HER effect [%]” value in assay [1] (setting [8]) worked out at 20%; in assay [1] (10 DAT, HER dose 6 g a.i./ha), 70%; in assay [1] (10 DAT, HER dose 24 g a.i./ha), 70%.
